Source: US20230295197A1, “STAT5 and STAT6 Degraders and Uses Thereof” (REGENTS OF THE UNIVERSITY OF MICHICAN, priority 2022, published 2023)
Where two headings read alike, the source gives them in different places.

Assays:
[1] = system: STAT5; test: Immunoblotting (Western blot) analysis of STAT5 degradation efficiency of degraders in treated cells; format: cell-based
Procedure, shortened: (§1)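 Treatment of cells with degraders at stated concentrations and exposure times comes first. Lysates are then equalised for total protein by BCA, and the proteins are separated, transferred and immunostained for STAT6 or STAT5 alongside GAPDH. Signal is quantified from infrared fluorescence.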

[2] = target: T1, STAT6 (Homo sapiens, UniProt P42226); test: Immunoblotting (Western blot) analysis of STAT6 degradation efficiency of degraders in treated cells; format: cell-based; conditions: MOLM-16 cells, numeric bound, read-out: DC50 S6 MOLM-16
T1 construct: endogenous in cells; host or cells: MOLM-16, KU-812, SKNO1, MB231, L1236
T1 sequence (P42226 1-847): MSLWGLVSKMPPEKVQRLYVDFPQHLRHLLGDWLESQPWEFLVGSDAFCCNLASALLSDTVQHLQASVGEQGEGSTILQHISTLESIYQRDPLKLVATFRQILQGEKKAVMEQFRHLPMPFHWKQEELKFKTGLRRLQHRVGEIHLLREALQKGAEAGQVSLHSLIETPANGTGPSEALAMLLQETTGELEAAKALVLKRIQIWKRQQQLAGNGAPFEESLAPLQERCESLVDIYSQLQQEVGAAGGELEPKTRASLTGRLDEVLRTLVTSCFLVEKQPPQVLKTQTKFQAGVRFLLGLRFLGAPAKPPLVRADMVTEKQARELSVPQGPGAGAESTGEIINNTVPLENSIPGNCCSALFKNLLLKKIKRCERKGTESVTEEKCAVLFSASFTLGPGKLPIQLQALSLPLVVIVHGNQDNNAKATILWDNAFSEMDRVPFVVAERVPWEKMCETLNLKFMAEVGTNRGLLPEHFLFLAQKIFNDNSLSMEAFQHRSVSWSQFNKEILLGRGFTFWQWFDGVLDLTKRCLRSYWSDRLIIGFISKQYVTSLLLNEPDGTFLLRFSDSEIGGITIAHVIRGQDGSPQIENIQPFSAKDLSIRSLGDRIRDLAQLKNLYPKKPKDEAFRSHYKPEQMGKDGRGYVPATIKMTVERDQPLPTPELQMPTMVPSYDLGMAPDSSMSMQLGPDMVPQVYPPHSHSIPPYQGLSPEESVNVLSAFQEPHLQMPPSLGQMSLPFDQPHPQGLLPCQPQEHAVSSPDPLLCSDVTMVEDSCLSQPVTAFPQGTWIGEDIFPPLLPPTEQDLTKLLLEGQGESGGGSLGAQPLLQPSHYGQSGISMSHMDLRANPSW
Procedure, shortened: as §1

[3] = MOLM-16 cells, numeric bound, read-out: DC50 S5 MOLM-16
[4] = KU-812 cells, read-out: DC50 S5 KU-812
[5] = MOLM-16 cells, class symbols, read-out: DC50 S5 MOLM-16
[6] = SKNO1 cells, read-out: DC50 S5 SKNO1

Structure (SMILES)	DC50 [1, 3]	DC50 [2]	DC50 [1, 4]	DC50 [1, 5]	DC50 [1, 6]
CC(C)(C)[C@H](NC(=O)c1cc2cc(C(F)(F)P(=O)(O)O)ccc2s1)C(=O)N1CCC[C@H]1C(=O)N1C[C@@H](Oc2ccccc2)C[C@H]1C(=O)NCCCC#Cc1cccc2c1CN(C1CCC(=O)NC1=O)C2=O (stereo partly drawn) [Compound 658, ((2-(((2S)-1-((2S)-2-((2S,4S)-2-((5-(2-(2,6-dioxopiperidin-3-yl)-1-oxoisoindolin-4-yl)pent-4-yn-1-yl)carbamoyl)-4-phenoxypyrrolidine-1-carbonyl)pyrrolidin-1-yl)-3,3-dimethyl-1-oxobutan-2-yl)carbamoyl)benzo[b]thiophen-5-yl)difluoromethyl)phosphonic acid]	> 0.3 µM	> 0.3 µM			
CC(C)(C)[C@H](NC(=O)c1cc2cc(C(F)(F)P(=O)(O)O)ccc2s1)C(=O)N1CCC[C@H]1C(=O)N(CCC(=O)NCCCC#Cc1cccc2c1CN(C1CCC(=O)NC1=O)C2=O)c1ccc2occc2c1 (stereo partly drawn) [Compound 661, ((2-(((2S)-1-((2S)-2-(benzofuran-5-yl(3-((5-(2-(2,6-dioxopiperidin-3-yl)-1-oxoisoindolin-4-yl)pent-4-yn-1-yl)amino)-3-oxopropyl)carbamoyl)pyrrolidin-1-yl)-3,3-dimethyl-1-oxobutan-2-yl)carbamoyl)benzo[b]thiophen-5-yl)difluoromethyl)phosphonic acid]		> 0.3 µM	0.1 to 1 µM	< 0.1 µM	0.1 to 1 µM
CC(C)(C)[C@H](NC(=O)c1cc2cc(C(F)(F)P(=O)(O)O)ccc2s1)C(=O)N1CCC[C@H]1C(=O)N(CCC(=O)NCCCC#Cc1cccc2c1CN(C1CCC(=O)NC1=O)C2=O)c1ccc2ncsc2c1 (stereo partly drawn) [Compound 662, ((2-(((2S)-1-((2S)-2-(benzo[d]thiazol-6-yl(3-((5-(2-(2,6-dioxopiperidin-3-yl)-1-oxoisoindolin-4-yl)pent-4-yn-1-yl)amino)-3-oxopropyl)carbamoyl)pyrrolidin-1-yl)-3,3-dimethyl-1-oxobutan-2-yl)carbamoyl)benzo[b]thiophen-5-yl)difluoromethyl)phosphonic acid]	> 0.3 µM	> 0.3 µM	> 10 µM		> 10 µM
CC(C)(C)[C@H](NC(=O)c1cc2cc(C(F)(F)P(=O)(O)O)ccc2s1)C(=O)N1CCC[C@H]1C(=O)N(CCCCCCCC#Cc1cccc2c1CN(C1CCC(=O)NC1=O)C2=O)c1ccc(-c2nccs2)cc1 (stereo partly drawn) [Compound 670, ((2-(((2S)-1-((2S)-2-((9-(2-(2,6-dioxopiperidin-3-yl)-1-oxoisoindolin-4-yl)non-8-yn-1-yl)(4-(thiazol-2-yl)phenyl)carbamoyl)pyrrolidin-1-yl)-3,3-dimethyl-1-oxobutan-2-yl)carbamoyl)benzo[b]thiophen-5-yl)difluoromethyl)phosphonic acid]	> 0.3 µM	> 0.3 µM			> 10 µM
CN(CCCC#Cc1cccc2c1CN(C1CCC(=O)NC1=O)C2=O)C(=O)CCN(C(=O)[C@@H]1CCCN1C(=O)[C@@H](NC(=O)c1cc2cc(C(F)(F)P(=O)(O)OCOC(=O)C(C)(C)C)ccc2s1)C(C)(C)C)c1ccc(Br)cc1 (stereo partly drawn) [Compound 677, ((((2-(((2S)-1-((2S)-2-((4-bromophenyl)(3-((5-(2-(2,6-dioxopiperidin-3-yl)-1-oxoisoindolin-4-yl)pent-4-yn-1-yl)(methyl)amino)-3-oxopropyl)carbamoyl)pyrrolidin-1-yl)-3,3-dimethyl-1-oxobutan-2-yl)carbamoyl)benzo[b]thiophen-5-yl)difluoromethyl)(hydroxy)phosphoryl)oxy)methyl pivalate]		> 0.3 µM		< 0.1 µM	
